# Measured values as given in patent publication US20070249556A1, “METHOD OF TREATING INFLAMMATION” (priority 2006, published 2007).
# How the values were obtained:
# neutrophils [1] = test: LPS model of acute pulmonary inflammation in rat; assay type: in vivo
# Description: The administration of lipopolysaccharides (LPS) from gram-negative bacteria cell walls to the lungs of rats results in a rapid increase in the total number of leukocytes in the lumen of the lungs. The increase of neutrophils in the lung in the LPS model represents the conditions present a patients with chronic respiratory diseases such as cystic fibrosis, chronic bronchitis, emphysema, and certain subtypes of asthma. The LPS model of acute pulmonary inflammation is a well-established model for testing compounds having potential activities in treating inflammatory airway diseases.
# Compound 11 (35 mg/kg) or vehicle (0.5% aqueous methylcellulose) was orally administered to groups of rats 15 minutes prior to pulmonary aerosolized LPS (˜2 micrograms/rat) or placebo (air) exposure (20 minute exposure) and 2.5 and 5 hours following the initial oral administration. Eight hours after pulmonary administration of aerosolized LPS, the lungs were lavaged to obtain bronchoalveolar lavage fluid, containing accumulated leukocytes.
# neutrophils [2] = test: Inhibition of neutrophil chemotaxis (Boyden type chemotaxis chamber); assay type: cell-based, human; conditions: isolated neutrophils, chemoattractant in lower chamber, one to three hours at 37 C, effective concentrations of inhibitor
# Method: Neutrophils were isolated from peripheral blood donated by healthy volunteers. Twenty milliliters of whole blood containing ACD ([…]) as an anticoagulant was layered over twenty milliliters Ficoll-Pacque Plus (Stem Cell Technologies, Vancouver, BC) and centrifuged for 45 minutes at 1500 rpm. Following centrifugation, the red blood cell layer (also containing the granulocytes) at the bottom of the tube was retained in the centrifugation tube while the top layers were removed. The red blood cell and granulocytes were combined with an equal volume of 3% Dextran 500 (Amersham Biosciences, Uppsala, Sweden) and mixed gently. The red blood cells were allowed to sediment for 30 minutes. […] The cells were resuspended in Hank's Balanced Salt Solution (HBSS, Invitrogen, Grand Island, N.Y.), and counted on a hemacytometer. […] Cell viability was determined through trypan blue exclusion and was greater than 95%. […]
# Chemoattractant compounds (e.g. fMLP) are prepared as 20 mM stock solutions and dissolved in either DMSO or water. […] The number of migrated cells is determined by microscopy and counting the number of cells per high powered field.
# Inhibitors of neutrophil chemotaxis are identified using a Boyden type chemotaxis chamber. […] The number of migrated cells is determined by microscopy and counting the number of cells per high powered field.
compound,measurement,setting,value
"CCNC(=O)Nc1ncnc2c1ncn2C1OC(CCC(=O)O)C2OC(/C=C/c3ccccc3)OC21 (stereo not drawn) [Compound 11, trans-3-{6-[6-(3-ethyl-ureido)-purin-9-yl]-2-styryl-tetrahydro-furo[3,4-d][1,3]dioxol-4-yl}-propionic acid]",number of neutrophils found in the lumen of the lungs (FIG. 1),"neutrophils [1]; rats treated with compound compared with animals not receiving it, acute model of pulmonary inflammation",significant reduction
same,decrease in the number of neutrophils recovered in the lavage fluid,"neutrophils [1]; rats, 35 mg/kg oral 15 min prior to aerosolized LPS and 2.5 and 5 hours after first dose, lavage 8 hours after LPS, vs vehicle and LPS, p<0.001",56.6%
same,number of migrated neutrophils,neutrophils [2],significant decrease
